What was measured:
[1] = test system: L1210 (R7A); assay: Concentration required to inhibit 50% growth of L1210 of R7A mutant mouse leukemia cell line was determined; format: functional, cell-based
[2] = test system: L1210; assay: The inhibitory activity was determined on L1210 mouse leukemia cell in presence of thymidine; format: functional; design: scale not given: the % may be the effect or the level left
[3] = test system: L1210; assay: Concentration required to inhibit 50% growth of L1210 mouse leukemia cells was determined; format: functional, cell-based
[4] = test system: L1210 (1565); assay: cells; format: functional, cell-based; settings: Mus musculus
Description: Concentration required to inhibit 50% growth of L1210 /1565 mutant mouse leukemia cell line was determined

[5] = molecular target: Thymidylate synthase (Mus musculus, UniProt P07607); assay: Concentration required to inhibit 50% activity of Thymidylate synthase was determined
Thymidylate synthase, sequence (P07607 whole entry): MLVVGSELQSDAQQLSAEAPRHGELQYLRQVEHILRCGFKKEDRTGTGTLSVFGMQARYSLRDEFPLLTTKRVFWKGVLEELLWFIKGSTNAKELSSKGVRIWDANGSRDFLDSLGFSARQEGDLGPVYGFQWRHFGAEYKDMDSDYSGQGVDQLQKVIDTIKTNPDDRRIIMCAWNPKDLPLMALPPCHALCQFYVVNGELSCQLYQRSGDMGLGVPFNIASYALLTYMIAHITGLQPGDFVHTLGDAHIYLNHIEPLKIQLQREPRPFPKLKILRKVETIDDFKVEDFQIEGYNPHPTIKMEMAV

Molecule `C#CCN(Cc1ccc2nc[nH]c(=O)c2c1)c1ccc(C(=O)N[C@@H](CCC(=O)O)C(=O)O)cc1` has an IC50 [1] of 7500 nM, a Control [2] of 100% and an IC50 [3] of 360 nM. It also gave an IC50 [4] of 4100 nM.

`C#CCN(Cc1ccc2nc(N)[nH]c(=O)c2c1)c1ccc(C(=O)N[C@@H](CCC(=O)O)C(=O)O)c(F)c1` showed an IC50 [1] of 6200 nM, a Control [2] of 84% and an IC50 [3] of 1100 nM. It also gave an IC50 [5] of 9 nM and an IC50 [4] of 600 nM.

For `C#CCN(Cc1ccc2nc(CO)[nH]c(=O)c2c1)c1ccc(C(=O)N[C@@H](CCC(=O)O)C(=O)O)c(F)c1`, the Control [2] was 82%, the IC50 [3] was 1900 nM and the IC50 [4] was 6000 nM.

For `C#CCN(Cc1ccc2nc(OC)[nH]c(=O)c2c1)c1ccc(C(=O)N[C@@H](CCC(=O)O)C(=O)O)c(F)c1`, the Control [2] was 89%, the IC50 [3] was 1000 nM and the IC50 [5] was 36 nM. The IC50 [4] was 45000 nM.

`C#CCN(Cc1ccc2nc(C)[nH]c(=O)c2c1)c1ccc(C(=O)N[C@@H](CCC(=O)O)C(=O)O)c(F)c1` gave an IC50 [1] of 110 nM, a Control [2] of 97% and an IC50 [3] of 27 nM. It also gave an IC50 [5] of 20 nM and an IC50 [4] of 2200 nM.

`C#CCN(Cc1ccc2nc(OC)[nH]c(=O)c2c1)c1ccc(C(=O)N[C@@H](CCC(=O)O)C(=O)O)cc1` gave an IC50 [1] of 14000 nM, a Control [2] of 100% and an IC50 [3] of 1900 nM. It also gave an IC50 [4] of 160000 nM.

`C#CCN(Cc1ccc2[nH]c(N)nc(=O)c2c1)c1ccc(C(=O)N[C@@H](CCC(=O)O)C(=O)O)cc1` showed an IC50 [1] of 41000 nM, a Control [2] of 96% and an IC50 [3] of 3500 nM. It also gave an IC50 [4] of 3600 nM.

Work on `C#CCN(Cc1ccc2nc[nH]c(=O)c2c1)c1ccc(C(=O)N[C@@H](CCC(=O)O)C(=O)O)c(F)c1` yielded an IC50 [1] of 3800 nM, a Control [2] of 84% and an IC50 [3] of 290 nM. It also gave an IC50 [5] of 58 nM and an IC50 [4] of 1200 nM.

In the case of `C#CCN(Cc1ccc2nc(C)[nH]c(=O)c2c1)c1ccc(C(=O)N[C@@H](CCC(=O)O)C(=O)O)cc1`, the IC50 [1] is reported as 390 nM, the Control [2] is reported as 100% and the IC50 [3] is reported as 85 nM. For the same molecule, the IC50 [4] was 8300 nM.

Reference: ChEMBL document CHEMBL1125013, “Quinazoline antifolate thymidylate synthase inhibitors: 2'-fluoro-N10-propargyl-5,8-dideazafolic acid and derivatives with modifications in the C2 position” (J Med Chem, 1990)
